In PMC4890880 (ACS infectious diseases, 2016):
Where two headings read alike, the source gives them in different places.

Legend:
[1] = test system: Plasmodium berghei (Pb-Luc) exoerythrocytic-stage parasites; settings: for normalised signal at concentration 10 (first series): concentration 10, first series of dose columns; for normalised signal at concentration 10 (second series): concentration 10, second series of dose columns; for IC50: read-out: PbLuc_IC50
[2] = test system: HepG2-A16-CD81EGFP cells; settings: for IC50: read-out: Tox_IC50, HepG2 cytotoxicity
[3] = sheet "2nd round", Broad compounds, dose response top concentration 10
[4] = first series of dose-response columns, fraction of control
[5] = first series, fraction of control
[6] = sheet 2nd round, Broad compounds, dose response
[7] = second series of dose-response columns, fraction of control
[8] = second series, fraction of control
[9] = sheet 2nd round, maximal inhibition in dose response
[10] = 2nd round, maximal inhibition in dose series

C[C@@H]1CCCCO[C@H](CN(C)S(=O)(=O)c2ccc(F)cc2)[C@H](C)CN([C@H](C)CO)C(=O)c2cc(N(C)C)ccc2O1 [BRD-K77041516-001-01-2]
normalised signal at concentration 0.000508053 (first series) [1]: 1.187 | normalised signal at concentration 0.000508053 (second series) [1]: 0.9225 | normalised signal at concentration 0.00152416 (first series) [1]: 0.8332 | normalised signal at concentration 0.00152416 (second series) [1]: 0.8694 | normalised signal at concentration 0.00457247 (first series) [1]: 0.9468 | normalised signal at concentration 0.00457247 (second series) [1]: 0.8206 | normalised signal at concentration 0.0137174 (first series) [1]: 0.8125 | normalised signal at concentration 0.0137174 (second series) [1]: 0.9272 | normalised signal at concentration 0.0411523 (first series) [1]: 0.9511 | normalised signal at concentration 0.0411523 (second series) [1]: 0.9568 | normalised signal at concentration 0.123457 (first series) [1]: 1.006 | normalised signal at concentration 0.123457 (second series) [1]: 0.7947 | normalised signal at concentration 0.37037 (first series) [1]: 0.8766 | normalised signal at concentration 0.37037 (second series) [1]: 1.201 | normalised signal at concentration 1.11111 (first series) [1]: 1.15 | normalised signal at concentration 1.11111 (second series) [1]: 1.082 | normalised signal at concentration 3.33333 (first series) [1]: 0.9005 | normalised signal at concentration 3.33333 (second series) [1]: 1.135 | normalised signal at concentration 10 (first series) [1]: 0.8572 | normalised signal at concentration 10 (second series) [1]: 0.9617 | IC50 [1, 3]: > 10 µM | PbLuc_max_inhibition (%) ([1]; sheet "2nd round"): 21% | IC50 ([2]; sheet "2nd round"): > 10 µM | Tox_max_inhibition (%) ([2]; sheet "2nd round"): 4.38%

COc1cccc(NC(=O)N[C@@H]2CC[C@H](CC(=O)N3CCN(C)CC3)O[C@@H]2CO)c1 [BRD-K48690594-001-01-7]
normalised signal at concentration 0.000508053 (first series) [1]: 0.9068 | normalised signal at concentration 0.000508053 (second series) [1]: 0.9275 | normalised signal at concentration 0.00152416 (first series) [1]: 1.012 | normalised signal at concentration 0.00152416 (second series) [1]: 1.043 | normalised signal at concentration 0.00457247 (first series) [1]: 1.046 | normalised signal at concentration 0.00457247 (second series) [1]: 0.8968 | normalised signal at concentration 0.0137174 (first series) [1]: 1.108 | normalised signal at concentration 0.0137174 (second series) [1]: 0.8364 | normalised signal at concentration 0.0411523 (first series) [1]: 0.955 | normalised signal at concentration 0.0411523 (second series) [1]: 1.013 | normalised signal at concentration 0.123457 (first series) [1]: 0.854 | normalised signal at concentration 0.123457 (second series) [1]: 0.8546 | normalised signal at concentration 0.37037 (first series) [1]: 1.036 | normalised signal at concentration 0.37037 (second series) [1]: 0.9102 | normalised signal at concentration 1.11111 (first series) [1]: 1.0718 | normalised signal at concentration 1.11111 (second series) [1]: 0.9366 | normalised signal at concentration 3.33333 (first series) [1]: 0.8922 | normalised signal at concentration 3.33333 (second series) [1]: 0.9328 | normalised signal at concentration 10 (first series) [1]: 0.9136 | normalised signal at concentration 10 (second series) [1]: 0.9502 | IC50 [1, 3]: > 10 µM | PbLuc_max_inhibition (%) ([1]; sheet "2nd round"): 16% | IC50 ([2]; sheet "2nd round"): > 10 µM | Tox_max_inhibition (%) ([2]; sheet "2nd round"): 14%

C[C@@H]1CN([C@@H](C)CO)C(=O)c2cccc(NC(=O)C3CC3)c2O[C@@H]1CN(C)C(=O)Nc1ccc(C(F)(F)F)cc1 [BRD-K19818397-001-01-8]
normalized signal at concentration 10 [1, 4]: 1.071 | normalized signal at concentration 0.000508053 [1, 5]: 1.034 | normalized signal at concentration 0.00152416 [1, 5]: 0.8006 | normalized signal at concentration 0.00457247 [1, 5]: 1.0648 | normalized signal at concentration 0.0137174 [1, 5]: 1.106 | normalized signal at concentration 0.0411523 [1, 5]: 1.032 | normalized signal at concentration 0.123457 [1, 5]: 1.068 | normalized signal at concentration 0.37037 [1, 5]: 0.8949 | normalized signal at concentration 1.11111 [1, 5]: 0.9694 | normalized signal at concentration 3.33333 [1, 5]: 1.103 | IC50 [1, 6]: > 10 µM | normalized signal at concentration 10 [1, 7]: 1.03 | normalized signal at concentration 0.000508053 [1, 8]: 1.064 | normalized signal at concentration 0.00152416 [1, 8]: 1.02 | normalized signal at concentration 0.00457247 [1, 8]: 1.098 | normalized signal at concentration 0.0137174 [1, 8]: 0.9383 | normalized signal at concentration 0.0411523 [1, 8]: 0.9903 | normalized signal at concentration 0.123457 [1, 8]: 1.126 | normalized signal at concentration 0.37037 [1, 8]: 1.0101 | normalized signal at concentration 1.11111 [1, 8]: 1.172 | normalized signal at concentration 3.33333 [1, 8]: 1.008 | PbLuc_max_inhibition (%) [1, 9]: 20% | IC50 ([2]; sheet 2nd round): > 10 µM | Tox_max_inhibition (%) [2, 9]: 16%

COc1ccc(CNC(=O)C[C@H]2CC[C@@H](NC(=O)CN(C)C)[C@H](CO)O2)cc1 [BRD-K05060234-001-01-0]
normalised signal at concentration 0.000508053 (first series) [1]: 0.9876 | normalised signal at concentration 0.000508053 (second series) [1]: 0.95 | normalised signal at concentration 0.00152416 (first series) [1]: 0.9394 | normalised signal at concentration 0.00152416 (second series) [1]: 1.006 | normalised signal at concentration 0.00457247 (first series) [1]: 1.108 | normalised signal at concentration 0.00457247 (second series) [1]: 1.09 | normalised signal at concentration 0.0137174 (first series) [1]: 1.028 | normalised signal at concentration 0.0137174 (second series) [1]: 1.083 | normalised signal at concentration 0.0411523 (first series) [1]: 1.04 | normalised signal at concentration 0.0411523 (second series) [1]: 1.112 | normalised signal at concentration 0.123457 (first series) [1]: 1.099 | normalised signal at concentration 0.123457 (second series) [1]: 1.024 | normalised signal at concentration 0.37037 (first series) [1]: 1.009 | normalised signal at concentration 0.37037 (second series) [1]: 0.9385 | normalised signal at concentration 1.11111 (first series) [1]: 1.251 | normalised signal at concentration 1.11111 (second series) [1]: 1.0925 | normalised signal at concentration 3.33333 (first series) [1]: 1.234 | normalised signal at concentration 3.33333 (second series) [1]: 0.8448 | normalised signal at concentration 10 (first series) [1]: 0.9455 | normalised signal at concentration 10 (second series) [1]: 0.8679 | IC50 [1, 3]: > 10 µM | PbLuc_max_inhibition (%) ([1]; sheet "2nd round"): 16% | IC50 ([2]; sheet "2nd round"): > 10 µM | Tox_max_inhibition (%) ([2]; sheet "2nd round"): 11%

O=C(C[C@@H]1CC[C@@H]2[C@H](COC[C@@H](O)CN2C(=O)c2ccncc2)O1)Nc1ccc(-c2ccccc2)cc1 [BRD-K17686828-001-01-0]
PbLuc_max_inhibition (%) [1, 10]: 43% | normalized signal at 0.000508053 (first series) ([1]; concentration 0.000508053, first replicate series, fraction of control): 1.033 | normalized signal at 0.000508053 (second series) ([1]; concentration 0.000508053, second replicate series, fraction of control): 0.8541 | normalized signal at 0.00152416 (first series) ([1]; concentration 0.00152416, first replicate series, fraction of control): 0.9014 | normalized signal at 0.00152416 (second series) ([1]; concentration 0.00152416, second replicate series, fraction of control): 0.8307 | normalized signal at 0.00457247 (first series) ([1]; concentration 0.00457247, first replicate series, fraction of control): 0.9821 | normalized signal at 0.00457247 (second series) ([1]; concentration 0.00457247, second replicate series, fraction of control): 0.9422 | normalized signal at 0.0137174 (first series) ([1]; concentration 0.0137174, first replicate series, fraction of control): 1.011 | normalized signal at 0.0137174 (second series) ([1]; concentration 0.0137174, second replicate series, fraction of control): 0.8936 | normalized signal at 0.0411523 (first series) ([1]; concentration 0.0411523, first replicate series, fraction of control): 0.9016 | normalized signal at 0.0411523 (second series) ([1]; concentration 0.0411523, second replicate series, fraction of control): 0.7632 | normalized signal at 0.123457 (first series) ([1]; concentration 0.123457, first replicate series, fraction of control): 1.067 | normalized signal at 0.123457 (second series) ([1]; concentration 0.123457, second replicate series, fraction of control): 0.5683 | normalized signal at 0.37037 (first series) ([1]; concentration 0.37037, first replicate series, fraction of control): 0.7959 | normalized signal at 0.37037 (second series) ([1]; concentration 0.37037, second replicate series, fraction of control): 0.6689 | normalized signal at 1.11111 (first series) ([1]; concentration 1.11111, first replicate series, fraction of control): 0.9118 | normalized signal at 1.11111 (second series) ([1]; concentration 1.11111, second replicate series, fraction of control): 0.6624 | normalized signal at 3.33333 (first series) ([1]; concentration 3.33333, first replicate series, fraction of control): 0.9028 | normalized signal at 3.33333 (second series) ([1]; concentration 3.33333, second replicate series, fraction of control): 0.8412 | normalized signal at 10 (first series) ([1]; concentration 10, first replicate series, fraction of control): 0.8222 | normalized signal at 10 (second series) ([1]; concentration 10, second replicate series, fraction of control): 0.7063 | IC50 ([1]; 2nd round, Broad DOS compounds, unit not printed (dose series head 10 to 0.000508053)): > 10 µM | Tox_max_inhibition (%) [2, 10]: 9% | IC50 ([2]; 2nd round, unit inferred): > 10 µM

C[C@@H]1CCCCO[C@@H](CN(C)S(=O)(=O)c2ccc(F)cc2)[C@@H](C)CN([C@@H](C)CO)C(=O)c2cc(N(C)C)ccc2O1 [BRD-K74261250-001-01-9]
normalized signal at concentration 10 [1, 4]: 0.8467 | normalized signal at concentration 0.000508053 [1, 5]: 1.172 | normalized signal at concentration 0.00152416 [1, 5]: 0.9183 | normalized signal at concentration 0.00457247 [1, 5]: 0.77 | normalized signal at concentration 0.0137174 [1, 5]: 1.0389 | normalized signal at concentration 0.0411523 [1, 5]: 0.8236 | normalized signal at concentration 0.123457 [1, 5]: 0.9547 | normalized signal at concentration 0.37037 [1, 5]: 1.005 | normalized signal at concentration 1.11111 [1, 5]: 0.9156 | normalized signal at concentration 3.33333 [1, 5]: 1.13 | IC50 [1, 6]: > 10 µM | normalized signal at concentration 10 [1, 7]: 0.7483 | normalized signal at concentration 0.000508053 [1, 8]: 1.01 | normalized signal at concentration 0.00152416 [1, 8]: 0.834 | normalized signal at concentration 0.00457247 [1, 8]: 1.154 | normalized signal at concentration 0.0137174 [1, 8]: 0.7879 | normalized signal at concentration 0.0411523 [1, 8]: 0.9255 | normalized signal at concentration 0.123457 [1, 8]: 1.124 | normalized signal at concentration 0.37037 [1, 8]: 0.8451 | normalized signal at concentration 1.11111 [1, 8]: 0.9426 | normalized signal at concentration 3.33333 [1, 8]: 1.1 | PbLuc_max_inhibition (%) [1, 9]: 25% | IC50 ([2]; sheet 2nd round): > 10 µM | Tox_max_inhibition (%) [2, 9]: 6.44%
